PubChem BioAssay (NCI)
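Five compound concentrations were applied to cells in 96-well plates for 48 hours; endpoints were derived by simple linear interpolation of the resulting dose-response curve. The concentration for 50% growth inhibition is given as GI50. Definition used: TGI = concentration required for complete inhibition of growth.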

Assays:
Test in all cases: NCI tumour cell line growth inhibition, 48 h
[1] = test system: SK-MEL-2 melanoma
[2] = test system: BT-549 breast
[3] = test system: IGROV1 ovarian
[4] = test system: DU-145 prostate
[5] = test system: SF-268 CNS
[6] = test system: K-562 leukemia
[7] = test system: OVCAR-4 ovarian
[8] = test system: HCT-15 colon
[9] = test system: MALME-3M melanoma
[10] = test system: A498 renal
[11] = test system: EKVX NSCLC
[12] = test system: HCC-2998 colon
[13] = test system: SK-OV-3 ovarian
[14] = test system: T-47D breast
[15] = test system: SNB-19 CNS
[16] = test system: NCI-H522 lung
[17] = test system: MOLT-4 leukemia
[18] = test system: SW-620 colon
[19] = test system: HL-60(TB) leukemia
[20] = test system: U251 CNS
[21] = test system: SF-539 CNS
[22] = test system: SNB-75 CNS
[23] = test system: KM12 colon
[24] = test system: UACC-62 melanoma
[25] = test system: HS 578T breast
[26] = test system: SK-MEL-5 melanoma
[27] = test system: SN12C renal
[28] = test system: NCI-H460 lung
[29] = test system: HT29 colon
[30] = test system: RPMI-8226 leukemia
[31] = test system: 786-0 renal
[32] = test system: ACHN renal
[33] = test system: HOP-92 NSCLC
[34] = test system: MDA-MB-435
[35] = test system: A549 NSCLC
[36] = test system: HCT-116 colon
[37] = test system: CAKI-1 renal
[38] = test system: PC-3 prostate
[39] = test system: TK-10 renal
[40] = test system: MDA-MB-231 breast
[41] = test system: OVCAR-8 ovarian
[42] = test system: SF-295 CNS
[43] = test system: NCI-H226 lung
[44] = test system: UACC-257 melanoma
[45] = test system: MCF7 breast
[46] = test system: UO-31 renal
[47] = test system: M14 melanoma
[48] = test system: COLO 205 colon
[49] = test system: OVCAR-5 ovarian
[50] = test system: LOX IMVI melanoma
[51] = test system: CCRF-CEM leukemia
[52] = test system: SK-MEL-28 melanoma
[53] = test system: NCI/ADR-RES ovarian
[54] = test system: OVCAR-3 ovarian

For COc1ccc2c(c1)C(=O)c1c-2c(N2CCN(C(=O)CCNCCNCCO)CC2)nc2ccccc12, the GI50 [1] was 24.1 µM, the TGI [1] was 52.6 µM and the GI50 [2] was 7.14 µM. It also gave a TGI [2] of 21.2 µM, a GI50 [3] of 12.7 µM and a TGI [3] of 45.2 µM. The GI50 [4] was 12.1 µM, the TGI [4] was 24.5 µM and the GI50 [5] was 14.3 µM. The TGI [5] was 36.9 µM, the GI50 [6] was 2.97 µM and the TGI [6] was 7.34 µM. It also gave a GI50 [7] of 21.2 µM, a TGI [7] of 42.2 µM and a GI50 [8] of 17.1 µM. It also gave a TGI [8] of 33.9 µM, a GI50 [9] of 26.6 µM and a TGI [9] of 58 µM. For the same molecule, the GI50 [10] was 18.7 µM, the TGI [10] was 34.4 µM and the GI50 [11] was 14.5 µM. It also gave a TGI [11] of 30.1 µM, a GI50 [12] of 13.8 µM and a TGI [12] of 30.1 µM. The GI50 [13] was 15.9 µM, the TGI [13] was 30.9 µM and the GI50 [14] was 13.4 µM. It also gave a TGI [14] of 29.8 µM, a GI50 [15] of 17.5 µM and a TGI [15] of 38 µM. For the same molecule, the GI50 [16] was 17.5 µM, the TGI [16] was 46.8 µM and the GI50 [17] was 5.05 µM. The TGI [17] was 22.9 µM, the GI50 [18] was 2.26 µM and the TGI [18] was 5.17 µM. The GI50 [19] was 10.3 µM, the TGI [19] was 25.8 µM and the GI50 [20] was 15.8 µM. For the same molecule, the TGI [20] was 33.8 µM, the GI50 [21] was 14.5 µM and the TGI [21] was 29.9 µM. It also gave a GI50 [22] of 18.6 µM, a TGI [22] of 37.4 µM and a GI50 [23] of 16.3 µM. For the same molecule, the TGI [23] was 53.1 µM, the GI50 [24] was 21.3 µM and the TGI [24] was 38.2 µM. It also gave a GI50 [25] of 16.1 µM, a TGI [25] of 35.4 µM and a GI50 [26] of 18 µM. For the same molecule, the TGI [26] was 33.8 µM, the GI50 [27] was 15.9 µM and the TGI [27] was 31.7 µM. It also gave a GI50 [28] of 4.61 µM, a TGI [28] of 19.6 µM and a GI50 [29] of 4.6 µM. The TGI [29] was 16.7 µM, the GI50 [30] was 11.3 µM and the TGI [30] was 33.2 µM. It also gave a GI50 [31] of 11.4 µM, a TGI [31] of 25.6 µM and a GI50 [32] of 16 µM. The TGI [32] was 30.8 µM, the GI50 [33] was 3.77 µM and the TGI [33] was 18.2 µM. For the same molecule, the GI50 [34] was 21.7 µM, the TGI [34] was 47.8 µM and the GI50 [35] was 13.2 µM. It also gave a TGI [35] of 28 µM, a GI50 [36] of 2.36 µM and a TGI [36] of 5.52 µM. For the same molecule, the GI50 [37] was 24 µM, the TGI [37] was 53.3 µM and the GI50 [38] was 13.2 µM. It also gave a TGI [38] of 27.9 µM, a GI50 [39] of 22.5 µM and a TGI [39] of 43.1 µM. It also gave a GI50 [40] of 13.5 µM, a TGI [40] of 30.9 µM and a GI50 [41] of 19.5 µM. For the same molecule, the TGI [41] was 48.3 µM, the GI50 [42] was 18.8 µM and the TGI [42] was 39.3 µM. The GI50 [43] was 22.6 µM, the TGI [43] was 48.1 µM and the GI50 [44] was 20.8 µM. For the same molecule, the TGI [44] was 42.1 µM, the GI50 [45] was 7.27 µM and the TGI [45] was 25.9 µM. For the same molecule, the GI50 [46] was 13.9 µM, the TGI [46] was 31.4 µM and the GI50 [47] was 11.8 µM. It also gave a TGI [47] of 24.1 µM, a GI50 [48] of 12.4 µM and a TGI [48] of 29.8 µM. The GI50 [49] was 18.3 µM, the TGI [49] was 34.4 µM and the GI50 [50] was 12.3 µM. For the same molecule, the TGI [50] was 31.6 µM, the GI50 [51] was 5.32 µM and the TGI [51] was 23.7 µM. For the same molecule, the GI50 [52] was 9.22 µM, the TGI [52] was 23.4 µM and the GI50 [53] was 18 µM. The TGI [53] was 36.1 µM, the GI50 [54] was 20.6 µM and the TGI [54] was 43.2 µM.
